The source of these data is patent US20030211469A1, “Inhibiting hepatitis c virus processing and replication” (priority 2003, published 2003).

Each structure is given as a SMILES string. Like-named read-outs stand apart in the source and are kept apart here.

In experiment [1] the target is T1, HCV NS2/3 (810-1615BK) (Hepatitis C virus genotype 1b, UniProt P26663).
T1 construct: HCV residues 810-1615 of the BK strain; made in house; host or cells: in vitro translation in rabbit reticulocyte lysate from plasmid pCITE 810-1615BK
Type of experiment: biochemical, Hepatitis C virus (BK strain). To be noted: for NS2/3 Processed (% of Control): 5 mM final concentration of nucleoside analog; for inhibition at the maximum concentration tested: 5 mM; for inhibition at the maximum concentration tested / IC50: residual ATP approximately 1 mM; for IC50: titration, read-out: IC50, inhibition of NS2/3 processing. Here is the method: (§1) HCV residues 810-1615 of the BK strain, which includes all of NS2 and most of NS3 (termed 810-1615BK), was produced from the plasmid pCITE 810-1615BK (a gift from Dr. Nicola La Monica) and has been described previously by Pieroni, et al., (1997) J. Virol. 71, 6373. Following plasmid linearization with BLP1, RNA was transcribed with T7 RNA polymerase and purified. Protein translation was in rabbit reticulocyte lysate, 30° C. for 40 minutes using [^35S]-methionine as a label. Translation was then blocked by the addition of cycloheximide (250 μM final) and the samples were immediately frozen on dry ice.
(§2) Prior to processing experiments, an aliquot of translated NS2/3 was thawed on ice. Processing of 810-1615BK was initiated by addition to room temperature solutions containing Triton X-100 at 1%, as described by Pieroni, et al., (1997) J. Virol. 71, 6373. The distribution of [^35S]-labeled proteins on dried gels was determined with a Phosphorimager (Molecular Dynamics). Product bands were quantified and expressed as a proportion of total signal in the gel lane so that variations in gel lane loading were normalized.

Experiment [2] concerns the target T2, NS2/3 fusion protein Ubi-849-1207J-BLA (UniProt P26662+P62593, S1165A).
T2 construct: NS2/3 residues 849-1207 (J strain); ubiquitin (N, cleaved yes); made in house; host or cells: in vitro translation in rabbit reticulocyte lysate from plasmid pM3A
Put plainly: Processing of NS2/3 fusion protein Ubi-849-1207J-BLA in reticulocyte lysate. It is filed as biochemical, Hepatitis C virus (J strain). From the text: The plasmid pM3A, derived from pCDNA (Invitrogen), encodes a fusion protein termed Ubi-849-1207J-BLA that contains ubiquitin at its N-terminus, followed by NS2/3 residues 849-1207 (J strain) linked to bacterial TEM-1 β-lactamase at the C-terminus. […] RNA synthesis for this construct is driven by the T7 promoter, and RNA was separately prepared for translation as in Example 1. Upon translation in rabbit reticulocyte lysate, the ubiquitin is immediately cleaved from the protein by cellular ubiquitin hydrolases. (Hochstrasser, (1996) Annual Review of Genetics 30, 405.)
The cleavable linkage (SEQ. ID. NO. 1) is present as ubiquitin↓ArgHisGlySerGluPhe-NS2/3. […] Translations were limited to 30 minutes for that reason. Quantification of processing at room temperature was by comparison of samples prepared immediately after addition of cycloheximide with later time samples.

Experiment [3] deals with ubiquitin-ubiquitin-ubiquitin-NS2/3-β-lactamase in Jurkat cells. Description: Cell-based NS2/3 cleavage assay, Jurkat cells, β-lactamase/CCF2 readout. Details: species or system Hepatitis C virus. To be noted: for IC50: read-out: IC50, NS2/3 cleavage in cells, 5 hours treatment, 460 nm/530 nm ratio.
Experimental: Inhibitor treatment was for 5 hours, followed by addition of cycloheximide to stop protein synthesis (30 minutes) and subsequent addition of the β-lactamase substrate, CCF2. After 2 hours, β-lactamase activity was quantified by fluorescence readings (460 nm/530 nm ratio). Lower 460 nm/530 nm ratios indicate inhibition of NS2/3 cleavage.
Through the use of a neomycin-selectable transfection vector, stable expression of NS2/3 in Jurkat cells was obtained. The plasmid pUbBla3X-NS2/3-3A conferring neomycin (G418) resistance, expresses a fusion of the NS2/3 protein with 3 ubiquitin domains appended to the N-terminus and β-lactamase at the C-terminus. The complete uncleaved protein has an in vivo half-life estimated to be 5-10 minutes.
The plasmid pUbBla3X NS2/3-3A was transfected into Jurlcat cells. The CMV promoter-driven ORF of the plasmid encodes a 91 kDa protein, ubiquitin-ubiquitin-ubiquitin-NS2/3-β-lactamase, with the C-termini of the 3 ubiquitin domains rendered non-cleaveable to ubiquitin-C-terminal hydrolases (ubiquitin C-terminal sequence ArgLeuArgGlyVal, SEQ. ID. NO. 2). The NS2/3 region includes HCV residues 849-1207. The β-lactamase domain is TEM-1 from E. coli. Expression of the P-lactamase moiety is readily detected with the fluorogenic, cell-penneant substrate, CCF2. (Zlokarnik, et al., (1998) Scienice 279, 84.) Transfectants were sorted by FACS using treatment with CCF2 to indicate β-lactamase expression (Zlokarnik, et al., (1998) Science 279, 84), and individual clones were grown under G418 selection. The full fusion protein expressed is highly unstable to ubiquitin-directed proteosomal degradation due to its ubiquitin N-terminal tag, while the C-terminal product of NS2/3 cleavage, NS3-β-lactamase, is stable for hours. Thus, build-up in the cells of O-lactamase activity, as indicated by CCF2 hydrolysis (high 460 nm1530 nm ratio) is indicative of successful NS2/3 cleavage, and suppression of P-lactamase activity indicates NS2/3 inhibition.
(See, Grakoui, et al., (1993) P.N.A.S. USA 90, 10583, Selby, et al., (1993) J. Gen. Virol. 74, 1103, fijikata, et al., (1993) J. Virol. 67, 4665, Santolini, et al., (1995) J. Viol. 69, 7461, D'Souza, et al., (1994) J. Gen. Virol. 75, 3469, and Pieroni, et al., (1997) J. Virol. 71, 6373.) NS2/3 self-cleavage separates the destabilizing ubiquitin degradation signal at the N-terminus from the NS3-O-lactamase C-terminal product, thus stabilizing the β-lactamase activity within the cell.
Experiment [4] relates to HCV NS2/3 (810-1615BK). It is filed as biochemical, Hepatitis C virus (BK strain). To be noted: for NS2/3 Processed (% of Control): present during synthesis and processing, 30 minutes. On the procedure:
as §1, §2
NS2/3 processing reactions were performed with 810-1615BK. […] (Darke, et al., (1999) J. Biol. Chem. 274, 34511.) Inhibitors were dissolved in DMSO and protected from light. Dilutions were in DMSO, such that the final concentration of DMSO was 2% for in vitro experiments and 1% for cell-based assays. […] (Hu, et al., (1996) P.N.A.S. USA 93, 1060; Thulasiraman, et al., (1996) Biochemistry 35, 13443 (1996), Schneider, et al., (1996) P.N.A.S. USA 93, 14536.)
to the data, where a is the minimal level of fractional activity (tending to 0), a+b is the maximal level (tending to 1), x is the concentration of inhibitor, c is the IC50 and d is a slope coefficient. […] Values given are the average of two determinations.

Where [5] appears, read: titration, 810-1615BK, average of two determinations.

As a reminder, the inhibition is how much of the control response was suppressed. A lower inhibition goes with little suppression. `Nc1ncnc2c1ncn2[C@@H]1O[C@H](COP(=O)(O)OP(=O)(O)NP(=O)(O)O)[C@@H](O)[C@H]1O` [AMP-PNP]: at HCV NS2/3 (810-1615BK) [1], the “NS2/3 Processed (% of Control)” value was 40 % of Control, the “inhibition at the maximum concentration tested” value is recorded as 60% and the IC50 is 4000 µM.
As to `Nc1ncnc2c1ncn2[C@@H]1O[C@H](COP(=O)(O)OP(=O)(O)OP(O)(O)=S)[C@@H](O)[C@H]1O` [ATPγS], the “Inhibition of NS2/3 processing, J-strain fusion protein” value in experiment [2] is recorded as “Inhibition by ATPγS was also observed”. Also, on HCV NS2/3 (810-1615BK) [1], the “NS2/3 Processed (% of Control)” value was 24 % of Control, the “inhibition at the maximum concentration tested” value is recorded as 77% and the IC50 amounted to 2000 µM.
Consider `COC1=C2C[C@@H](C)C[C@H](OC)[C@H](O)[C@@H](C)/C=C(\C)[C@H](OC(N)=O)[C@@H](OC)/C=C\C=C(/C)C(=O)NC(=CC1=O)C2=O` [Geldanamycin], for which, in experiment [3], the “inhibition at the highest concentrations tested” value is on record as “nearly complete” and the IC50 turned out to be 0.04 µM.
As for `CO[C@H]1[C@@H](OC)C[C@H](C)[C@@H](OC)C2=CC(=O)C=C(NC(=O)/C(C)=C/C=C\[C@H](OC)[C@@H](OC(N)=O)/C(C)=C/[C@@H]1C)C2=O` [Herbimycin A, herbimycin A], the “NS2/3 Processed (% of Control)” value with HCV NS2/3 (810-1615BK) [4] (1 μM) was 38 % of Control; with HCV NS2/3 (810-1615BK) [4] (10 μM), 22 % of Control.
One may read the EC50 as the concentration at which the effect is half-maximal. Higher therefore signals weaker potency. For the molecule `C[C@@H]1C[C@H]2O[C@@H]2/C=C\C=C\C(=O)Cc2c(Cl)c(O)cc(O)c2C(=O)O1` [Radicicol], in experiment [3], the “inhibition at the highest concentrations tested” value is listed as “nearly complete” and the IC50 turned out to be 0.013 µM. Moreover, in the experiment with HCV NS2/3 (810-1615BK) [4] (setting [5]), it took 0.22 ± 0.12 µM to reach a half-maximal effect (EC50) and the “Maximum Inhibition (%)” value amounted to 51%.
